# Active and inactive are the calls of the source. The rule behind the calls is not given here.
# Test system: CCRIS mutagenicity, Ames/micronucleus/aberration tests
# Experiment: CCRIS mutagenicity studies
# [1] = Test System: AMES SALMONELLA TYPHIMURIUM, Strain/Indicator: TA98, Metabolic Activation: NONE, Method: STANDARD PLATE
# [2] = Test System: AMES SALMONELLA TYPHIMURIUM, Strain/Indicator: TA98, Metabolic Activation: RAT, LIVER, S-9, AROCLOR 1254, Method: STANDARD PLATE
# [3] = Test System: AMES SALMONELLA TYPHIMURIUM, Strain/Indicator: TA100, Metabolic Activation: NONE, Method: STANDARD PLATE
# [4] = Test System: AMES SALMONELLA TYPHIMURIUM, Strain/Indicator: TA100, Metabolic Activation: RAT, LIVER, S-9, AROCLOR 1254, Method: STANDARD PLATE
# [5] = Test System: AMES SALMONELLA TYPHIMURIUM, Strain/Indicator: TA98, Metabolic Activation: NONE, Method: PREINCUBATION
# [6] = Test System: AMES SALMONELLA TYPHIMURIUM, Strain/Indicator: TA98, Metabolic Activation: RAT, LIVER, S-9, AROCLOR 1254, Method: PREINCUBATION
# [7] = Test System: AMES SALMONELLA TYPHIMURIUM, Strain/Indicator: TA100, Metabolic Activation: NONE, Method: PREINCUBATION
# [8] = Test System: AMES SALMONELLA TYPHIMURIUM, Strain/Indicator: TA100, Metabolic Activation: RAT, LIVER, S-9, AROCLOR 1254, Method: PREINCUBATION
smiles,measurement,setting,value
CCCC[C@@H](C)[C@@H](OC(=O)C[C@@H](CC(=O)O)C(=O)O)[C@H](C[C@@H](C)C[C@H](O)CCCC[C@@H](O)C[C@H](O)[C@H](C)N)OC(=O)C[C@@H](CC(=O)O)C(=O)O,mutagenic call,"Test System: AMES SALMONELLA TYPHIMURIUM, Strain/Indicator: TA97A, Metabolic Activation: NONE, Method: STANDARD PLATE",inactive; negative
same,mutagenic call,"Test System: AMES SALMONELLA TYPHIMURIUM, Strain/Indicator: TA97A, Metabolic Activation: RAT, LIVER, S-9, AROCLOR 1254, Method: STANDARD PLATE",inactive; negative
same,mutagenic call,[1],inactive; negative
same,mutagenic call,"Test System: AMES SALMONELLA TYPHIMURIUM, Strain/Indicator: TA98, Metabolic Activation: RAT LIVER S-9, Method: STANDARD PLATE",inactive; negative
same,mutagenic call,[2],inactive; negative
same,mutagenic call,[3],inactive; negative
same,mutagenic call,"Test System: AMES SALMONELLA TYPHIMURIUM, Strain/Indicator: TA100, Metabolic Activation: RAT LIVER S-9, Method: STANDARD PLATE",inactive; negative
same,mutagenic call,[4],inactive; negative
same,mutagenic call,"Test System: AMES SALMONELLA TYPHIMURIUM, Strain/Indicator: TA102, Metabolic Activation: NONE, Method: STANDARD PLATE",inactive; negative
same,mutagenic call,"Test System: AMES SALMONELLA TYPHIMURIUM, Strain/Indicator: TA102, Metabolic Activation: RAT LIVER S-9, Method: STANDARD PLATE",inactive; negative
same,mutagenic call,"Test System: AMES SALMONELLA TYPHIMURIUM, Strain/Indicator: TA102, Metabolic Activation: RAT, LIVER, S-9, AROCLOR 1254, Method: STANDARD PLATE",inactive; negative
Cc1ccc(S(=O)(=O)Oc2ccc(N=Nc3ccc(-c4ccc(N=Nc5c(S(=O)(=O)O)cc6cc(S(=O)(=O)O)ccc6c5O)cc4C)c(C)c3)cc2)cc1,mutagenic call,"Test System: AMES SALMONELLA TYPHIMURIUM, Strain/Indicator: TA98, Metabolic Activation: HAMSTER, LIVER, S-9, Method: PREINCUBATION (PRIVAL METHOD)",inactive; negative
C=C(C)[C@H]1CC=C(C)C(=O)C1,mutagenic call,"Test System: AMES SALMONELLA TYPHIMURIUM, Strain/Indicator: TA98, Metabolic Activation: HAMSTER, LIVER, S-9, AROCLOR 1254, Method: PREINCUBATION",inactive; negative
same,mutagenic call,[5],inactive; negative
same,mutagenic call,[6],inactive; negative
same,mutagenic call,"Test System: AMES SALMONELLA TYPHIMURIUM, Strain/Indicator: TA100, Metabolic Activation: HAMSTER, LIVER, S-9, AROCLOR 1254, Method: PREINCUBATION",inactive; negative
same,mutagenic call,[7],inactive; negative
same,mutagenic call,[8],inactive; negative
same,mutagenic call,"Test System: AMES SALMONELLA TYPHIMURIUM, Strain/Indicator: TA1535, Metabolic Activation: HAMSTER, LIVER, S-9, AROCLOR 1254, Method: PREINCUBATION",inactive; negative
same,mutagenic call,"Test System: AMES SALMONELLA TYPHIMURIUM, Strain/Indicator: TA1535, Metabolic Activation: NONE, Method: PREINCUBATION",inactive; negative
same,mutagenic call,"Test System: AMES SALMONELLA TYPHIMURIUM, Strain/Indicator: TA1535, Metabolic Activation: RAT, LIVER, S-9, AROCLOR 1254, Method: PREINCUBATION",inactive; negative
same,mutagenic call,"Test System: AMES SALMONELLA TYPHIMURIUM, Strain/Indicator: TA1537, Metabolic Activation: HAMSTER, LIVER, S-9, AROCLOR 1254, Method: PREINCUBATION",inactive; negative
same,mutagenic call,"Test System: AMES SALMONELLA TYPHIMURIUM, Strain/Indicator: TA1537, Metabolic Activation: NONE, Method: PREINCUBATION",inactive; negative
same,mutagenic call,"Test System: AMES SALMONELLA TYPHIMURIUM, Strain/Indicator: TA1537, Metabolic Activation: RAT, LIVER, S-9, AROCLOR 1254, Method: PREINCUBATION",inactive; negative
ClCc1c2ccccc2c(Cl)c2ccccc12,mutagenic call,[3],active; positive
O=[N+]([O-])c1cccc2c1-c1ccc3ccc4cccc5cc-2c1c3c45,mutagenic call,[6],active; positive
same,mutagenic call,[8],active; positive
O=S1(=O)OC(c2cc(Br)c(O)c(Br)c2)(c2cc(Br)c(O)c(Br)c2)c2c(Br)c(Br)c(Br)c(Br)c21,mutagenic call,[1],inactive; negative
same,mutagenic call,[2],inactive; negative
same,mutagenic call,[3],inactive; negative
same,mutagenic call,[4],inactive; negative
same,mutagenic call,"Test System: AMES SALMONELLA TYPHIMURIUM, Strain/Indicator: TA1535, Metabolic Activation: NONE, Method: STANDARD PLATE",inactive; negative
same,mutagenic call,"Test System: AMES SALMONELLA TYPHIMURIUM, Strain/Indicator: TA1535, Metabolic Activation: RAT, LIVER, S-9, AROCLOR 1254, Method: STANDARD PLATE",inactive; negative
same,mutagenic call,"Test System: AMES SALMONELLA TYPHIMURIUM, Strain/Indicator: TA1537, Metabolic Activation: NONE, Method: STANDARD PLATE",inactive; negative
same,mutagenic call,"Test System: AMES SALMONELLA TYPHIMURIUM, Strain/Indicator: TA1537, Metabolic Activation: RAT, LIVER, S-9, AROCLOR 1254, Method: STANDARD PLATE",inactive; negative
same,mutagenic call,"Test System: AMES SALMONELLA TYPHIMURIUM, Strain/Indicator: TA1538, Metabolic Activation: NONE, Method: STANDARD PLATE",inactive; negative
same,mutagenic call,"Test System: AMES SALMONELLA TYPHIMURIUM, Strain/Indicator: TA1538, Metabolic Activation: RAT, LIVER, S-9, AROCLOR 1254, Method: STANDARD PLATE",inactive; negative
same,mutagenic call,"Test System: MOUSE LYMPHOMA, Strain/Indicator: L5178Y (TK+/TK-), Metabolic Activation: NONE, Method: SUSPENSION/PLATE",inactive; negative
same,mutagenic call,"Test System: MOUSE LYMPHOMA, Strain/Indicator: L5178Y (TK+/TK-), Metabolic Activation: RAT, LIVER, S-9, AROCLOR 1254, Method: SUSPENSION/PLATE",inactive; negative
C=C(C=O)C[C@@H]1C[C@H](O)[C@@H]2O[C@@H]3C[C@@H]4O[C@@H]5/C=C\C[C@@H]6O[C@H]7[C@H](C/C=C\C[C@H]6O[C@H]5CCC[C@H]4O[C@H]3C[C@H]2O1)O[C@@H]1C[C@@H]2O[C@@H]3CC(=O)O[C@H]3C[C@@H](C)C[C@@]2(C)O[C@H]1C[C@@H]7C,mutagenic call,"End Point: In vitro chromosomal aberrations, Test System: Chinese hamster ovary (CHO-K1-BH4) cells, Metabolic Activation: None",active; positive (structural changes)
c1cnc2c(c1)CCC1OC21 (stereo unspecified),mutagenic call,[3],inactive; negative
same,mutagenic call,"Test System: AMES SALMONELLA TYPHIMURIUM, Strain/Indicator: TA100, Metabolic Activation: RAT, LIVER, S-9, AROCLOR 1254 (10 OR 20%), Method: STANDARD PLATE",inactive; negative
Nc1cnc2ccccc2c1,mutagenic call,[5],inactive; negative
same,mutagenic call,"Test System: AMES SALMONELLA TYPHIMURIUM, Strain/Indicator: TA98, Metabolic Activation: RAT, LIVER, S-9, KANECHLOR 500 OR PHENOBARBITAL AND BETA-NAPHTHOFLAVONE, Method: PREINCUBATION",active; positive
same,mutagenic call,[7],inactive; negative
same,mutagenic call,"Test System: AMES SALMONELLA TYPHIMURIUM, Strain/Indicator: TA100, Metabolic Activation: RAT, LIVER, S-9, KANECHLOR 500 OR PHENOBARBITAL AND BETA-NAPHTHOFLAVONE, Method: PREINCUBATION",active; positive

# Source: PubChem BioAssay AID1259407 (Chemical Carcinogenesis Research Information System (CCRIS), 2018)
